Measured values from PMC8041306 (Journal of Medicinal Chemistry, 2021).

SMILES | melting point [°C]
O=C(NCc1ccc(F)cc1)N1CCN2C(=O)OC(C3CCCCC3)(C3CCCCC3)C2C1 (stereo not shown) | 94 to 95
CCCC1(CCC)OC(=O)N2CCN(C(=O)NCc3ccc(F)cc3)CC21 (stereo not shown) | 74 to 77
O=C(NCc1ccc(F)cc1)N1CCN2C(=O)OC(c3ccc(F)cc3)(c3ccc(F)cc3)C2C1 (stereo not shown) | 104 to 107
O=C(NCc1ccc(F)cc1)N1CCN2C(=O)OC(c3ccc(Cl)cc3)(c3ccc(Cl)cc3)C2C1 (stereo not shown) | 77 to 79
Cc1ccc(C2(c3ccc(C)cc3)OC(=O)N3CCN(C(=O)NCc4ccc(F)cc4)CC32)cc1 (stereo not shown) | 89 to 90
CN(C)c1ccc(C2(c3ccc(N(C)C)cc3)OC(=O)N3CCN(C(=O)NCc4ccc(F)cc4)CC32)cc1 (stereo not shown) | 110 to 113
COc1ccccc1C1(c2ccccc2OC)OC(=O)N2CCN(C(=O)NCc3ccc(F)cc3)CC21 (stereo not shown) | 172 to 173
O=C(NCc1ccc(F)cc1)N1C[C@H](c2ccccc2)N2C(=O)OC(c3ccccc3)(c3ccccc3)[C@H]2C1 [Compound 21, (5S,8aR)-N-(4-Fluorobenzyl)-3-oxo-1,1,5-triphenyltetrahydro-1H-oxazolo[3,4-a]pyrazine-7(3H)-carboxamide] | 105 to 107

More lines, now with the values ahead:

melting point [°C] | SMILES
68 to 69 | N=C(NCc1ccccc1)N1CCN2C(=O)OC(c3ccccc3)(c3ccccc3)C2C1 (stereo not shown)
153 to 156 | C[C@H]1CN(C(=O)NCc2ccc(F)cc2)C[C@H]2N1C(=O)OC2(c1ccccc1)c1ccccc1
217 to 219 | Cc1ccccc1C1(c2ccccc2C)OC(=O)N2CCN(C(=O)NCc3ccc(F)cc3)CC21 (stereo not shown)
120 to 123 | O=C(NCc1ccc(F)cc1)N1CCN2C(=O)OC3(c4ccccc4-c4ccccc43)C2C1 (stereo not shown)
82 to 85 | N=C(NCc1ccc(F)cc1)N1CCN2C(=O)OC(c3ccccc3)(c3ccccc3)C2C1 (stereo not shown) [Compound 16, N-(4-Fluorobenzyl)-3-oxo-1,1-diphenyltetrahydro-1H-oxazolo[3,4-a]pyrazine-7(3H)-carboximidamide]
